Measurements: the NIST ThermoML archive (doi:10.1021/acs.jced.7b00564)
± gives the expanded uncertainty stated by the source.

Assay: xn = mol fraction of the nth substance listed
Settings: Gas, isochoric method

F/C=C/C(F)(F)F [trans-1,3,3,3-tetrafluoropropene] + CC(C)C
Settings	specific volume [m3/kg]
303.15 K, 259.6 kPa, x2 = 0.516	0.1062 ± 0.0008
303.15 K, 267.9 kPa, x2 = 0.29	0.0895 ± 0.0008
303.15 K, 304.9 kPa, x2 = 0.685	0.1004 ± 0.0008
303.15 K, 305.5 kPa, x2 = 0.428	0.0844 ± 0.0008
303.15 K, 321 kPa, x2 = 0.612	0.089 ± 0.0009
303.15 K, 367.4 kPa, x2 = 0.755	0.0856 ± 0.0008
308.15 K, 264.5 kPa, x2 = 0.516	0.1062 ± 0.0008
308.15 K, 273 kPa, x2 = 0.29	0.0895 ± 0.0008
308.15 K, 310.7 kPa, x2 = 0.685	0.1004 ± 0.0008
308.15 K, 311.3 kPa, x2 = 0.428	0.0844 ± 0.0008
308.15 K, 327.2 kPa, x2 = 0.612	0.089 ± 0.0008
308.15 K, 374.9 kPa, x2 = 0.755	0.0856 ± 0.0008
313.15 K, 269.2 kPa, x2 = 0.516	0.1062 ± 0.0008
313.15 K, 277.9 kPa, x2 = 0.29	0.0896 ± 0.0007
313.15 K, 316.5 kPa, x2 = 0.685	0.1005 ± 0.0007
313.15 K, 317.1 kPa, x2 = 0.428	0.0844 ± 0.0008
313.15 K, 333.4 kPa, x2 = 0.612	0.0891 ± 0.0008
313.15 K, 382.2 kPa, x2 = 0.755	0.0857 ± 0.0008
318.15 K, 274 kPa, x2 = 0.516	0.1063 ± 0.0008
318.15 K, 282.8 kPa, x2 = 0.29	0.0896 ± 0.0007
318.15 K, 322.2 kPa, x2 = 0.685	0.1005 ± 0.0007
318.15 K, 322.8 kPa, x2 = 0.428	0.0845 ± 0.0008
318.15 K, 339.5 kPa, x2 = 0.612	0.0891 ± 0.0008
318.15 K, 389.5 kPa, x2 = 0.755	0.0857 ± 0.0007
323.15 K, 278.8 kPa, x2 = 0.516	0.1063 ± 0.0008
323.15 K, 287.8 kPa, x2 = 0.29	0.0896 ± 0.0007
323.15 K, 328 kPa, x2 = 0.685	0.1005 ± 0.0007
323.15 K, 328.5 kPa, x2 = 0.428	0.0845 ± 0.0008
323.15 K, 345.6 kPa, x2 = 0.612	0.0891 ± 0.0008
323.15 K, 396.8 kPa, x2 = 0.755	0.0857 ± 0.0007
328.15 K, 283.5 kPa, x2 = 0.516	0.1063 ± 0.0007
328.15 K, 292.7 kPa, x2 = 0.29	0.0896 ± 0.0007
328.15 K, 333.7 kPa, x2 = 0.685	0.1005 ± 0.0007
328.15 K, 334.2 kPa, x2 = 0.428	0.0845 ± 0.0007
328.15 K, 351.7 kPa, x2 = 0.612	0.0891 ± 0.0008
328.15 K, 404 kPa, x2 = 0.755	0.0857 ± 0.0007
333.15 K, 288.2 kPa, x2 = 0.516	0.1063 ± 0.0007
333.15 K, 297.6 kPa, x2 = 0.29	0.0896 ± 0.0007
333.15 K, 339.5 kPa, x2 = 0.685	0.1005 ± 0.0007
333.15 K, 339.9 kPa, x2 = 0.428	0.0845 ± 0.0007
333.15 K, 357.8 kPa, x2 = 0.612	0.0891 ± 0.0008
333.15 K, 411.2 kPa, x2 = 0.755	0.0857 ± 0.0007
338.15 K, 292.9 kPa, x2 = 0.516	0.1064 ± 0.0007
338.15 K, 302.5 kPa, x2 = 0.29	0.0897 ± 0.0007
338.15 K, 345.1 kPa, x2 = 0.685	0.1006 ± 0.0007
338.15 K, 345.6 kPa, x2 = 0.428	0.0845 ± 0.0007
338.15 K, 363.8 kPa, x2 = 0.612	0.0892 ± 0.0007
338.15 K, 418.3 kPa, x2 = 0.755	0.0857 ± 0.0007
343.15 K, 297.6 kPa, x2 = 0.516	0.1064 ± 0.0007
343.15 K, 307.4 kPa, x2 = 0.29	0.0897 ± 0.0007
343.15 K, 350.8 kPa, x2 = 0.685	0.1006 ± 0.0007
343.15 K, 351.2 kPa, x2 = 0.428	0.0846 ± 0.0007
343.15 K, 369.8 kPa, x2 = 0.612	0.0892 ± 0.0007
343.15 K, 425.4 kPa, x2 = 0.755	0.0858 ± 0.0007
348.15 K, 302.3 kPa, x2 = 0.516	0.1064 ± 0.0007
348.15 K, 312.2 kPa, x2 = 0.29	0.0897 ± 0.0007
348.15 K, 356.5 kPa, x2 = 0.685	0.1006 ± 0.0007
348.15 K, 356.9 kPa, x2 = 0.428	0.0846 ± 0.0007
348.15 K, 375.8 kPa, x2 = 0.612	0.0892 ± 0.0007
348.15 K, 432.4 kPa, x2 = 0.755	0.0858 ± 0.0007
353.15 K, 307 kPa, x2 = 0.516	0.1064 ± 0.0007
353.15 K, 317.1 kPa, x2 = 0.29	0.0897 ± 0.0007
353.15 K, 362.1 kPa, x2 = 0.685	0.1006 ± 0.0007
353.15 K, 362.6 kPa, x2 = 0.428	0.0846 ± 0.0007
353.15 K, 381.8 kPa, x2 = 0.612	0.0892 ± 0.0007
353.15 K, 439.4 kPa, x2 = 0.755	0.0858 ± 0.0007
358.15 K, 311.7 kPa, x2 = 0.516	0.1064 ± 0.0007
358.15 K, 321.9 kPa, x2 = 0.29	0.0897 ± 0.0006
358.15 K, 367.7 kPa, x2 = 0.685	0.1007 ± 0.0007
358.15 K, 368.2 kPa, x2 = 0.428	0.0846 ± 0.0007
358.15 K, 387.8 kPa, x2 = 0.612	0.0892 ± 0.0007
358.15 K, 446.5 kPa, x2 = 0.755	0.0858 ± 0.0007
363.15 K, 316.4 kPa, x2 = 0.516	0.1065 ± 0.0007
363.15 K, 326.8 kPa, x2 = 0.29	0.0898 ± 0.0006
363.15 K, 373.3 kPa, x2 = 0.685	0.1007 ± 0.0007
363.15 K, 373.9 kPa, x2 = 0.428	0.0846 ± 0.0007
363.15 K, 393.7 kPa, x2 = 0.612	0.0892 ± 0.0007
363.15 K, 453.5 kPa, x2 = 0.755	0.0858 ± 0.0006
368.15 K, 321.1 kPa, x2 = 0.516	0.1065 ± 0.0007
368.15 K, 331.6 kPa, x2 = 0.29	0.0898 ± 0.0006
368.15 K, 379 kPa, x2 = 0.685	0.1007 ± 0.0007
368.15 K, 379.5 kPa, x2 = 0.428	0.0846 ± 0.0007
368.15 K, 399.7 kPa, x2 = 0.612	0.0893 ± 0.0007
368.15 K, 460.5 kPa, x2 = 0.755	0.0859 ± 0.0006
373.15 K, 325.7 kPa, x2 = 0.516	0.1065 ± 0.0007
373.15 K, 336.5 kPa, x2 = 0.29	0.0898 ± 0.0006
373.15 K, 384.7 kPa, x2 = 0.685	0.1007 ± 0.0006
373.15 K, 385.1 kPa, x2 = 0.428	0.0847 ± 0.0006
373.15 K, 405.6 kPa, x2 = 0.612	0.0893 ± 0.0006
373.15 K, 467.6 kPa, x2 = 0.755	0.0859 ± 0.0006
378.15 K, 330.4 kPa, x2 = 0.516	0.1065 ± 0.0006
378.15 K, 341.4 kPa, x2 = 0.29	0.0898 ± 0.0006
378.15 K, 390.3 kPa, x2 = 0.685	0.1007 ± 0.0006
378.15 K, 390.7 kPa, x2 = 0.428	0.0847 ± 0.0006
378.15 K, 411.7 kPa, x2 = 0.612	0.0893 ± 0.0006
378.15 K, 474.5 kPa, x2 = 0.755	0.0859 ± 0.0006
383.15 K, 335.1 kPa, x2 = 0.516	0.1066 ± 0.0006
383.15 K, 346.2 kPa, x2 = 0.29	0.0898 ± 0.0006
383.15 K, 395.9 kPa, x2 = 0.685	0.1008 ± 0.0006
383.15 K, 396.3 kPa, x2 = 0.428	0.0847 ± 0.0006
383.15 K, 417.6 kPa, x2 = 0.612	0.0893 ± 0.0006
383.15 K, 481.6 kPa, x2 = 0.755	0.0859 ± 0.0006
